Reference: patent publication US8722937B2 (priority 2006, dated 2014)
Values after ≈ are worked out from the molar mass of the structure shown. Where two headings read alike, the source gives them in different places. Marks after values point to notes of the source that are not given here.

What was measured:
B. anthracis = details: cited from earlier work
MRSA (ATCC 43300) [1] = details: cited from earlier work
S. aureus (ATCC 25923) [2] = details: MSSA ATCC 25923; data from ref. 6 (PenG, 2g) or ref. 52 (vancomycin); cited from earlier work
[3] = molecular target: FabH derived from M. tuberculosis (mtFabH) (Mycobacterium tuberculosis, UniProt P9WNG3); details: for IC50: read-out: IC50 against mtFabH
S. aureus (ATCC 25923) [4] = details: MSSA ATCC 25923; data taken from ref. 6; cited from earlier work
[5] = molecular target: T1, FabH derived from E. coli (ecFabH) (Escherichia coli, UniProt P0A6R0); experiment: FabH enzyme assay (coupled trichloroacetic acid precipitation assay), ecFabH; format: biochemical; details: for IC50: 15 min preincubation at 23° C., duplicate assays, read-out: IC50 against ecFabH; for inhibition at 5 µM: 5 μM of test compound, read-out: Percent inhibition of FabH derived from E. coli, ecFabH (%)
T1 construct: polyhistidine (N); made in house; host or cells: E. coli
T1 sequence (P0A6R0 1-317): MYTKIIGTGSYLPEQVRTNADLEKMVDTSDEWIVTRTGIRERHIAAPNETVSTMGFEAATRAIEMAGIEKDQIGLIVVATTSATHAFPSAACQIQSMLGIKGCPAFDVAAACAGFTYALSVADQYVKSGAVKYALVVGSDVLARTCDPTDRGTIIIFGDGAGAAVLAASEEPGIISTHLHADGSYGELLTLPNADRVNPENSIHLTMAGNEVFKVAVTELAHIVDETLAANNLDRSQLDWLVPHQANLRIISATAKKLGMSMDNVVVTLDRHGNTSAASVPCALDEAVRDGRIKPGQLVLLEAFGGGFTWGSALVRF

[6] = tested on: methicillin-resistant S. aureus (MRSA); details: MRSA ATCC 43300; data taken from ref. 6; cited from earlier work
S. aureus (ATCC 25923) [7] = experiment: Agar dilution minimum inhibitory concentration (MIC), S. aureus; format: cell-based, Staphylococcus aureus; details: for MIC: Staphylococcus aureus
S. aureus (ATCC 25923) [8] = experiment: microbe, parasite or virus in culture; format: cell-based, Staphylococcus aureus; details: for Zones of growth inhibition, S. aureus / zone of inhibition at 20 µg/disc: 24 h, 37° C.; for zone of inhibition at 20 µg/disc: Staphylococcus aureus, ATCC25923
MRSA (ATCC 43300) [9] = experiment: Minimum inhibitory concentration (MIC), MRSA; format: cell-based, Staphylococcus aureus
[10] = tested on: methicillin-resistant S. aureus (MRSA); experiment: microbe, parasite or virus in culture; format: cell-based, Staphylococcus aureus; details: for Zones of growth inhibition, MRSA / zone of inhibition at 20 µg/disc: 24 h, 37° C.; for zone of inhibition at 20 µg/disc: Staphylococcus aureus, MRSA, read-out: Average zones of growth inhibition of MRSA (USF-652-659, 919-920)
M. tuberculosis = details: reported by Jones et al.; cited from earlier work
B. anthracis (USF 848) [11] = experiment: microbe, parasite or virus in culture; format: cell-based, Bacillus anthracis; details: Bacillus anthracis, 24 h, 37° C.
[12] = tested on: E. coli (K12; ATCC 23590); experiment: Minimum inhibitory concentration (MIC), E. coli; format: cell-based; details: Escherichia coli, ATCC23590, read-out: MIC (μg/mL) against E. coli
B. anthracis (USF 848) [13] = experiment: microbe, parasite or virus in culture; format: cell-based, Bacillus anthracis; details: Bacillus anthracis, read-out: Minimum inhibitory concentration (MIC) against B. anthracis (USF 848)
[14] = tested on: E. coli (K12; ATCC 23590); experiment: Kirby-Bauer zones of inhibition, E. coli; format: cell-based, Escherichia coli; details: K12 strain, ATCC 23590; for Zone of Inhibition (mm), E. coli, zones of partial inhibition: number in parentheses; for Zone of Inhibition (mm), E. coli: number outside parentheses
[15] = MRSA ATCC 43300, data taken from ref. 6
[16] = ATCC25923, serial dilution in 24-well plate, NCCLS, read-out: Minimum inhibitory concentration (MIC) against S. aureus (ATCC 25923)
[17] = read-out: Zones of growth inhibition of B. anthracis (USF 848)
[18] = read-out: Zones of growth inhibition of B. anthracis (USF 848), areas of partial growth inhibition
[19] = read-out: Zones of growth inhibition of S. aureus (ATCC 25923)
[20] = read-out: Zones of growth inhibition of S. aureus (ATCC 25923), areas of partial inhibition
[21] = ATCC 25923 / MSSA, read-out: MIC (MSSA)

Sequence of FabH derived from M. tuberculosis (mtFabH) (P9WNG3 whole entry): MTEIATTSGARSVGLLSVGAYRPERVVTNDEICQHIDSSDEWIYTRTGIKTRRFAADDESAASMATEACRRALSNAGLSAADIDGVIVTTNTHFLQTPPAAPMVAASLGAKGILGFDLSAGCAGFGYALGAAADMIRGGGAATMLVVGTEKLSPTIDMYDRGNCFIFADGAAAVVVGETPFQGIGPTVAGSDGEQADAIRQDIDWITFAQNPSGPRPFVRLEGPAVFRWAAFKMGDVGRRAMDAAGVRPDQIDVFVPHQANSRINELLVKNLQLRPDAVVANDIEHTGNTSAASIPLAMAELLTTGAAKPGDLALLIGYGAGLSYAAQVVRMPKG

Compound	MIC (S. aureus (ATCC 25923) [7]; [16]) [µg/mL]	zone of inhibition at 20 µg/disc (B. anthracis (USF 848) [11]; [17]) [mm]	MIC [12] [µg/mL]	zone of inhibition at 20 µg/disc (S. aureus (ATCC 25923) [8]; [19]) [mm]	zone of inhibition at 20 µg/disc (S. aureus (ATCC 25923) [8]; [20]) [mm]	MIC (B. anthracis (USF 848) [13]) [µg/mL]	Zone of Inhibition (mm), E. coli, zones of partial inhibition [14]	zone of inhibition at 20 µg/disc [10] [mm]	inhibition at 5 µM [5] [%]	further results
O=C(O)c1cn(C2CC2)c2cc(N3CCNCC3)c(F)cc2c1=O [Ciprofloxacin]										reported value for Ciprofloxacin (for 50% growth inhibition) (B. anthracis): 0.094
CCC(C)SN1C(=O)C(OC)C1c1ccccc1Cl (centres unmarked) [Compound 2g]										MIC (MRSA) (MRSA (ATCC 43300) [1]; [15]): 0.25 µg/mL (≈ 0.834 µM); MIC (MSSA) (S. aureus (ATCC 25923) [2]): 0.25 µg/mL (≈ 0.834 µM); Percent inhibition of mtFabH ([3]; 10 µM): 4%; Zone (MSSA) (S. aureus (ATCC 25923) [4]): 32^c mm; Percent inhibition of ecFabH ([5]; 1 μM of test compound): 30%; Zone (MRSA) [6]: 34 mm
CSN1C(=O)OCC1c1ccccc1 (centres unmarked) [Compound 13, reference compound]										MIC (MSSA) (S. aureus (ATCC 25923) [7]; MSSA ATCC 25923): 4 µg/mL (≈ 19.1 µM); Zone (MSSA) (S. aureus (ATCC 25923) [8]): 29 mm; MIC (MRSA) (MRSA (ATCC 43300) [9]): 8 µg/mL (≈ 38.2 µM); Zone (MRSA) [10]: 28 mm
CSSCCNC(=O)CCNC(=O)[C@H](O)C(C)(C)COP(=O)(O)OP(=O)(O)OC[C@H]1O[C@@H](n2cnc3c(N)ncnc32)[C@H](O)[C@@H]1OP(=O)(O)O [Compound 25a]										IC50 [3]: > 300 µM; Zones of growth inhibition, S. aureus (S. aureus (ATCC 25923) [8]): 0 mm; Zones of growth inhibition, MRSA [10]: 0 mm; IC50 [5]: 57.1 ± 4.48 µM
CCC(C)SSCCNC(=O)CCNC(=O)[C@H](O)C(C)(C)COP(=O)(O)OP(=O)(O)OC[C@H]1O[C@@H](n2cnc3c(N)ncnc32)[C@H](O)[C@@H]1OP(=O)(O)O (some centres unmarked) [Compound 25c]										IC50 [3]: > 300 µM; Zones of growth inhibition, S. aureus (S. aureus (ATCC 25923) [8]): 0 mm; Zones of growth inhibition, MRSA [10]: 0 mm; IC50 [5]: > 300 µM
CCCCSSCCNC(=O)CCNC(=O)[C@H](O)C(C)(C)COP(=O)(O)OP(=O)(O)OC[C@H]1O[C@@H](n2cnc3c(N)ncnc32)[C@H](O)[C@@H]1OP(=O)(O)O [Compound 25d]										IC50 [3]: > 300 µM; IC50 [5]: > 300 µM
CCCCCCCCSSCCNC(=O)CCNC(=O)[C@H](O)C(C)(C)COP(=O)(O)OP(=O)(O)OC[C@H]1O[C@@H](n2cnc3c(N)ncnc32)[C@H](O)[C@@H]1OP(=O)(O)O [Compound 25e]										IC50 [3]: 23.2 ± 4.6 µM; IC50 [5]: > 300 µM
CCCCCCCCCCSSCCNC(=O)CCNC(=O)[C@H](O)C(C)(C)COP(=O)(O)OP(=O)(O)OC[C@H]1O[C@@H](n2cnc3c(N)ncnc32)[C@H](O)[C@@H]1OP(=O)(O)O [Compound 25f]										IC50 [3]: 2.6 ± 1.6 µM; IC50 [5]: > 300 µM
CC(C)CCCCCCCS(=O)(=O)CC(N)=O [Compound 30]										activity against M. tuberculosis, in words (M. tuberculosis): good activity
CSSc1ccc([N+](=O)[O-])cc1 [Compound 38a, p-Nitrophenyl Methyl Disulfide]	16 (≈ 79.5 µM)	47	16 (≈ 79.5 µM)	30	35	0.25 (≈ 1.24 µM)	24 mm	23	94	zone of inhibition at 20 µg/disc (B. anthracis (USF 848) [11]; [18]): 54 mm; melting point: 29 to 32 °C; Zone of Inhibition (mm), E. coli [14]: 17 mm
CCSSc1ccc([N+](=O)[O-])cc1 [Compound 38b, Ethyl p-nitrophenyl Disulfide]	32 (≈ 149 µM)	56	16 (≈ 74.3 µM)	47	54	0.25 (≈ 1.16 µM)	23 mm	38	98	zone of inhibition at 20 µg/disc (B. anthracis (USF 848) [11]; [18]): 67 mm; Zone of Inhibition (mm), E. coli [14]: 15 mm
CC(C)SSc1ccc([N+](=O)[O-])cc1 [Compound 38c, Isopropyl p-nitrophenyl disulfide]	0.4 (≈ 1.74 µM)	71	96 (≈ 419 µM)	68	85	< 0.125	(11) mm	75	98.5	MIC (S. aureus (ATCC 25923) [7]; [21]): 0.8 µg/mL (≈ 3.49 µM); Zone (MSSA) (S. aureus (ATCC 25923) [8]): 47 mm; Zone (MRSA) [10]: 70 mm
CCC(C)SSc1ccc([N+](=O)[O-])cc1 (centres unmarked) [Compound 38d, Sec-Butyl p-nitrophenyl Disulfide]	0.8 (≈ 3.29 µM)	56	128 (≈ 526 µM)	47	68	< 0.125	(10) mm	54	96	MIC (S. aureus (ATCC 25923) [7]; [21]): 0.4 µg/mL (≈ 1.64 µM); zone of inhibition at 20 µg/disc (B. anthracis (USF 848) [11]; [18]): 62 mm; Zone (MSSA) (S. aureus (ATCC 25923) [8]): 67 mm; Zone (MRSA) [10]: 54 mm
CCCSSc1ccc([N+](=O)[O-])cc1 [Compound 38e, p-Nitrophenyl n-propyl Disulfide]	24 (≈ 105 µM)	49	64 (≈ 279 µM)	36	43	1 (≈ 4.36 µM)	21 mm	38	91	zone of inhibition at 20 µg/disc (B. anthracis (USF 848) [11]; [18]): 57 mm; Zone of Inhibition (mm), E. coli [14]: 16 mm
CCCCSSc1ccc([N+](=O)[O-])cc1 [Compound 38f, n-Butyl p-nitrophenyl Disulfide]	32 (≈ 131 µM)	44	96 (≈ 394 µM)	41	53	1 (≈ 4.11 µM)	22 mm	28	93	zone of inhibition at 20 µg/disc (B. anthracis (USF 848) [11]; [18]): 52 mm; Zone of Inhibition (mm), E. coli [14]: 15 mm
CC1(C)S[C@@H]2[C@H](NC(=O)Cc3ccccc3)C(=O)N2[C@H]1C(=O)O [PenG., penicillin G, reference compound]										MIC (MRSA) (MRSA (ATCC 43300) [1]; [15]): 64 µg/mL (≈ 191 µM); MIC (MSSA) (S. aureus (ATCC 25923) [2]): 0.03 µg/mL (≈ 0.0897 µM); Zone (MSSA) (S. aureus (ATCC 25923) [4]): 33 mm; Zone (MRSA) [6]: 14 mm
CN[C@H](CC(C)C)C(=O)N[C@H]1C(=O)N[C@@H](CC(N)=O)C(=O)N[C@H]2C(=O)N[C@H]3C(=O)N[C@H](C(=O)N[C@H](C(=O)O)c4cc(O)cc(O)c4-c4cc3ccc4O)[C@H](O)c3ccc(c(Cl)c3)Oc3cc2cc(c3O[C@@H]2O[C@H](CO)[C@@H](O)[C@H](O)[C@H]2O[C@H]2C[C@](C)(N)[C@H](O)[C@H](C)O2)Oc2ccc(cc2Cl)[C@H]1O [Vanc., Vancomycin, reference compound]										MIC (MRSA) (MRSA (ATCC 43300) [1]; MRSA 67, as reported by ref. 52): 0.39^d μg/mL; MIC (MSSA) (S. aureus (ATCC 25923) [2]): 0.78^d μg/mL; Zone (MSSA) (S. aureus (ATCC 25923) [8]): 27 mm; Zone (MRSA) [10]: 22 mm
